What was measured:
proline hydroxylase [1] = test: Inhibition of collagen proline hydroxylation in organ culture (isolated calvariae / EHS sarcoma tissue), ratio of 14C-proline to 14C-hydroxyproline; type: cell-based; details: Inhibition 50 %; incubation with 14C-proline, ratio 14C-proline to 14C-hydroxyproline in extracted collagen; read-out: Conc. giving the stated Inhibition, % (50)
Description: Determination of the inhibitory effect is described below.
(a) Tissue of the EHS sarcoma tumor, which produces an extracellular matrix resembling basal membrane and produces, in particular, type IV collagen (Erkin et al., Exp. Med. 145 (1977) 204-220), is incubated in analogy to the method of K. Tryggvason et al. (Biochemistry 19 (1980) 1248-1289) in the presence of ^14 C-proline and of inhibitors in various concentrations. After the incubation has been stopped, the tissue is homogenized and extracted with dilute acetic acid. After NaCl precipitation, the extracted collagen was hydrolyzed with 6 M HCl, and the ratio of ^14 C-proline to ^14 C-hydroxyproline was determined.
(b) Isolated calvariae are incubated in analogy to the method of B. Peterkovsky and R. DiBlasio (Anal. Biochem. 66 (1975) 279-286) in the presence of U-^14 C-proline and inhibitors. After the incubation has been stopped, the calvariae are homogenized, and the collagen is extracted with dilute acetic acid. After hydrolysis of the extract with 6 M HCl, the ratio of ^14 C-proline to ^14 C-hydroxyproline is determined.

[2] = tested on: Clq biosynthesis by macrophages; details: cited from earlier work
proline hydroxylase [3] = target: T1, proline hydroxylase (Gallus gallus, UniProt P16924); details: cited from earlier work
T1 sequence (P16924 1-516): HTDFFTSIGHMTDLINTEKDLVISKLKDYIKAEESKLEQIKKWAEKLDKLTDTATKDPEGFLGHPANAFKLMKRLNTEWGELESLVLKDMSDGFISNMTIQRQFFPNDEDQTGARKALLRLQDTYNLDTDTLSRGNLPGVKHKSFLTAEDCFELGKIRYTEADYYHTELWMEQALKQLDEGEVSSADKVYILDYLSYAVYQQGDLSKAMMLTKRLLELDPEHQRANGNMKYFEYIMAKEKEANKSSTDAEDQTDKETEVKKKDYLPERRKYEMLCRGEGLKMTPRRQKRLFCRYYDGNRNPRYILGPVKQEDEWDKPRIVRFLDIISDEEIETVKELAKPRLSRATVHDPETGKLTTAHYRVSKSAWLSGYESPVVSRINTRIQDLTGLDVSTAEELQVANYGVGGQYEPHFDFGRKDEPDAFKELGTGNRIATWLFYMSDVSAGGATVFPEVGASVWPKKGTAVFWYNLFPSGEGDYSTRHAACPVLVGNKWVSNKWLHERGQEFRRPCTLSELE
T1 sequence (P09102 23-515 partner): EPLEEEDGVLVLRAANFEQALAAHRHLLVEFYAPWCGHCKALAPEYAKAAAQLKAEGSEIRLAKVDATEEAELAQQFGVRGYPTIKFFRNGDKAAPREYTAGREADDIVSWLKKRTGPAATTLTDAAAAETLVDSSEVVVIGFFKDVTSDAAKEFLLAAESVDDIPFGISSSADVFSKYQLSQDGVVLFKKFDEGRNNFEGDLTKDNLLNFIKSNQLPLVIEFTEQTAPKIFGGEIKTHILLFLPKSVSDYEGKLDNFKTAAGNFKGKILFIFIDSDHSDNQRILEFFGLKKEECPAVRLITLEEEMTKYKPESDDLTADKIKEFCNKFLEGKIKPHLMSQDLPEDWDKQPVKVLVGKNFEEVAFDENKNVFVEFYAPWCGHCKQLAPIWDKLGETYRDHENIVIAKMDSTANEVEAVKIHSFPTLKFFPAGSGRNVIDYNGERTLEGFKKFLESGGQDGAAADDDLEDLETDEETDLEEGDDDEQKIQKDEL

[4] = tested on: collagen biosynthesis in cell culture; details: cited from earlier work

Row | Compound | IC50 (proline hydroxylase [1]) [µM] | inhibition of Clq biosynthesis by macrophages [2] | inhibition of proline hydroxylase (proline hydroxylase [3]) | inhibitory effectiveness in cell culture [4]
1 | CCOC(=O)c1ccc(C(=O)OCC)nc1 [C2 H5 5] | 90 |  |  | 
2 | c1ccc(-c2ccccn2)nc1 [α,α'-dipyridyl] |  | leads to inhibition of Clq biosynthesis |  | 
3 | O=C(O)c1ccc(C(=O)O)nc1 [H 5] | 2100 |  | effectively inhibited | effective inhibitors only in very high concentrations
4 | O=C(O)c1ccnc(C(=O)O)c1 [H 4] | 670 |  | effectively inhibited | effective inhibitors only in very high concentrations
5 | CCOC(=O)c1ccnc(C(=O)OCC)c1 [C2 H5 4] | 3 |  |  | 
